We go through nine compounds from article PMC9697025, “Discovery of N-Containing (-)-Borneol Esters as Respiratory Syncytial Virus Fusion Inhibitors” (Pharmaceuticals, 2022).

Data set [1] has as its system RSV A strain A2. Description: In vitro antiviral assay against RSV A strain A2 in HEp-2 cells (ELISA, virus titer). It is filed as cell-based, respiratory syncytial virus. To be noted: for IC50: RSV A strain A2 in HEp-2 cells, mean ± SD.
Data set [2] has as its system RSV A strain. As to conditions: for effect on viral titer, time-of-addition: compound added at 1 h post infection; for inhibitory activity, time-of-addition: compound added at later time points (after 2 h post infection); for time of addition up to which antiviral activity was maintained: post infection.
Data set [3] deals with RSV. Description: Temperature shift assay (virus attachment at 4 °C vs post-binding). As to conditions: unbound virus washed away, compound added before shift to 37 °C.
Data set [4] is described as follows: MTT cytotoxicity assay with non-infected HEp2 cells. As to conditions: human. (In general: Formazan colour is commonly taken as a measure of viable cells.)
Data set [5] relates to Vaccinia virus. To be noted: CC50/IC50VACV ref 16; cited from earlier work.
For data set [6], the system named is rVSV-ΔG-EboV-GP. To be noted: CC50/IC50EboV-GP, HEK293T cells ref 12,13; cited from earlier work.
Data set [7] relates to A/Puerto Rico/8/34 (H1N1) virus. Set-up: method as in PMID 30108810. As to conditions: CC50/IC50H1N1, A/Puerto Rico/8/34 (H1N1) ref 15; cited from earlier work.
The test system of data set [8] is pSARS-CoV-2-S. Set-up: method as in PMID 35746766. As to conditions: CC50/IC50pSARS-CoV-2-S, pseudovirus ref 14; cited from earlier work.
The test system of data set [9] is rVSV-ΔG-MarV-GP. To be noted: CC50/IC50MarV-GP, HEK293T cells ref 12,13; cited from earlier work.
Data set [10] has as its system SARS-CoV-2. Details: method as in PMID 35746766. To be noted: CC50/IC50SARS-CoV-2, against various SARS-CoV-2 virus strains ref 14; cited from earlier work.
Data set [11] in a line: in vitro. To be noted: human.
Where [12] appears, read: human respiratory syncytial virus, HEp-2, 50% decrease in virus replication.
The mark [13] stands for this setting: selectivity index, CC50/IC50 ratio, RSV A2 / HEp-2.

Read-outs that look alike come from different tables or passages of the source. Marks after values point to notes of the source that are not given here.

Take `CN(C)CCC(=O)O[C@@H]1C[C@@H]2CC[C@@]1(C)C2(C)C` [Compound 3b]: the IC50 in data set [1] (setting [12]) was determined as 8.9 ± 2.4 µM. Besides, the SI in data set [1] (setting [13]) was 111. In [2], the “effect on viral titer, time-of-addition” value is reported as “significant reduction in viral titer”; the “inhibitory activity, time-of-addition” value is “lost their inhibitory activity”; the “time of addition up to which antiviral activity was maintained” value (“time of addition up” for short) is “up to 2 h”. Further, the “anti-RSV activity, temperature shift conditions (B)” value in data set [3] is “antiviral activity was maintained”. In addition, the CC50 at 24 h in data set [4] turned out to be 983 ± 44.2 µM.

In the case of `CC1(C)[C@H]2CC[C@]1(C)[C@H](OC(=O)CN1CCOCC1)C2` [Compound 5a], the SI in [1] turned out to be 83. In data set [1] (setting [12]), half-maximal inhibition (IC50) was put at 5 ± 1 µM. For the same compound, in data set [2], the “effect on viral titer, time-of-addition” value is “significant reduction in viral titer”; the “inhibitory activity, time-of-addition” value is recorded as “lost their inhibitory activity”; the “time of addition up” value is “up to 2 h”. In addition, in [5], the SIVACV result is on record as “^d SIVACV = 56”. For the same compound, the SIEboV-GP result in [6] is on record as “^b SIEboV-GP = 13”. In addition, the “anti-RSV activity, temperature shift conditions (B)” value in [3] was “antiviral activity was maintained”. This compound also returned a CC50 at 24 h in data set [4] of 413 ± 35.1 µM. The SIH1N1 entry in data set [7] was “^c SIH1N1 = 82”. Further, the SIpSARS-CoV-2-S entry in data set [8] was “^e SIpSARS-CoV-2-S = 5”. The SIMarV-GP result in data set [9] is listed as “^a SIMarV-GP = 5”.

As for `CC1(C)[C@H]2CC[C@]1(C)[C@H](OC(=O)CCN1CCOCC1)C2` [Compound 5b], in [1], the SI is 15. The compound further had an IC50 in data set [1] (setting [12]) of 8.5 ± 2.8 µM. Moreover, the SIVACV entry in data set [5] is reported as “^d SIVACV = 48”. Also, the SIEboV-GP result in [6] was “^b SIEboV-GP = 36”. The same compound returned a CC50 at 24 h in data set [4] of 127 ± 15.2 µM. For the same compound, the SIH1N1 entry in data set [7] was “^c SIH1N1 = 45”. In addition, the SIpSARS-CoV-2-S entry in data set [8] is reported as “^e SIpSARS-CoV-2-S = 18”. In addition, in [9], the SIMarV-GP entry is “^a SIMarV-GP = 5”.

In data set [1] (setting [12]), `CC1(C)[C@H]2CC[C@]1(C)[C@H](OC(=O)CCCN1CCOCC1)C2` [Compound 5c] gave an IC50 of 5.8 ± 0.9 µM. The SI in [1] (setting [13]) was determined as 53. Moreover, the SIVACV result in data set [5] was “^d SIVACV = 23”. The compound further yielded a CC50 at 24 h in [4] of 307 ± 24.1 µM.

`CC1(C)[C@H]2CC[C@]1(C)[C@H](OC(=O)CCN1CCCCC1)C2` [Compound 6b] had an IC50 in [1] (setting [12]) of 14.6 ± 1.2 µM. For the same compound, the SI in data set [1] (setting [13]) is given as 22. For the same compound, in [2], the “effect on viral titer, time-of-addition” value is recorded as “significant reduction in viral titer”; the “inhibitory activity, time-of-addition” value is listed as “lost their inhibitory activity”; the “time of addition up” value is “up to 2 h”. Moreover, the “anti-RSV activity, temperature shift conditions (B)” value in data set [3] is “antiviral activity was maintained”. The CC50 at 24 h in data set [4] amounted to 326 ± 45.6 µM.

For the compound `CC1(C)[C@H]2CC[C@]1(C)[C@H](OC(=O)CCN1CCN(c3ccccc3)CC1)C2` [Compound 14b, (1S,2R,4S)-1,7,7-Trimethylbicyclo [2.2.1]heptan-2-yl 3-(4-phenylpiperazin-1-yl)propanoate], the melting point was found to be 83 °C. Moreover, the IC50 in data set [1] (setting [12]) turned out to be 8.1 ± 0.9 µM. Moreover, in [1] (setting [13]), the SI was 45. The compound further showed a CC50 at 24 h in data set [4] of 366 ± 25.8 µM.

`CCCCN(CCCC)CC(=O)OC1CC2CCC1(C)C2(C)C` (stereo not drawn) [IV (n=1)]: in data set [10], the SISARS-CoV-2 entry is on record as “SISARS-CoV-2 = 11–40 *”. In data set [7], the SIH1N1 entry is “^c SIH1N1 = 16”. In addition, the SIpSARS-CoV-2-S entry in data set [8] is given as “^e SIpSARS-CoV-2-S = 10”. The SIMarV-GP entry in data set [9] is “^a SIMarV-GP = 6”.

Regarding `CCCCN(CCCC)CCC(=O)OC1CC2CCC1(C)C2(C)C` (stereo not drawn) [IV (n=2)], the SISARS-CoV-2 entry in [10] is “SISARS-CoV-2 = 6–102 *”. Moreover, the SIH1N1 entry in [7] is listed as “^c SIH1N1 = 12”. Also, the SIpSARS-CoV-2-S entry in data set [8] was “^e SIpSARS-CoV-2-S = 29”. In data set [9], the SIMarV-GP entry is on record as “^a SIMarV-GP = 15”.

Regarding `NC(=O)c1ncn([C@@H]2O[C@H](CO)[C@@H](O)[C@H]2O)n1` [Ribavirin, reference compound], in data set [1], the SI turned out to be 50. Moreover, the half-inhibitory concentration (IC50) in data set [1] (50% decrease in virus replication) is 80.1 ± 13.5 µM; in data set [1] (setting [12]) it was 80 µM. This compound had a CC50 at 24 h in data set [11] below 4000 µM.

For orientation: IC50 means the concentration needed to halve the response being measured. Lower therefore signals higher potency. Usually melting point stands for the temperature, or range, at which the solid turns liquid.
